Reference: publication PMC8150020, “Studying the suitability of hybrid micelle liquid chromatography for estimating the lipophilicity of some partial dopamine agonists used to attain the reward circuit” (Royal Society Open Science, 2021)
Where a name gives a salt, the structure may show the parent alone. Read-outs that look alike come from different tables or passages of the source.

Experiments:
[1] = experimental determination of log Pm/w using MLC; format: physicochemical; settings: 0.18 M SDS, 0.3% TEA, pH 6, column 40°C
Method: (§1) Three micelle-based mobile phases were developed for the separation of this mixture. In all three cases, the separation was carried out on a Prontosil Kromaplus C18 column (250 × 4.6 mm) of particle size 5 µm, Leonberg, Germany, which was kept at 40°C. […] Separation of the three drugs was accomplished using 254 nm as a detection wavelength, adopting a flow rate of 1.5 ml min^−1.
(§2) Different actual SDS concentrations for each mobile phase (after subtracting the CMC of SDS at 40°C) were plotted versus the inverse of the capacity factor for each drug, using the optimized chromatographic conditions for MLC, HMLC and MELC, where pH was adjusted to 6, and the column temperature was kept at 40°C for the three separation methods.

[2] = experimental determination of log Pm/w using HMLC; format: physicochemical; settings: for experimental log Pm/w, column temperature 25°C: pH 6, 25°C; for experimental log Pm/w, column temperature 30°C: pH 6, 30°C; for experimental log Pm/w, column temperature 35°C: pH 6, 35°C
[3] = experimental determination of log Pm/w using MELC; format: physicochemical; settings: 0.18 M SDS, 10% acetonitrile, 1% octane, 0.3% TEA, pH 6, column 40°C
Method: as §1, §2

[4] = design: method as in earlier work; settings: cited from earlier work
[5] = design: method as in earlier work; settings: cited from earlier work; remark: listed apart in the source
[6] = HMLC, pH 3, 40°C, read-out: log P (experimental log Pm/w) pH 3
[7] = HMLC, pH 4, 40°C, read-out: log P (experimental log Pm/w) pH 4

Q: Which results are given for `CCCN[C@H]1CCc2nc(N)sc2C1` (racemic) [PRM, (RS)-4,5,6,7-tetrahydro-N-6-propyl-2,6-benzothiazolediamine dihydrochloride monohydrate]?
A: experimental log Pm/w MLC [1]: 0.9385; experimental log Pm/w, column temperature 25°C ([2]; HMLC): 1.1714; experimental log Pm/w, column temperature 30°C ([2]; HMLC): 2.197; experimental log Pm/w, column temperature 35°C ([2]; HMLC): 2.228; experimental log Pm/w MELC [3]: 1.316; pka [4]: 10.5; reported log P [5]: 2.34

Q: Which “experimental log Pm/w MLC” value [1] does the source give for `O=C1CCc2ccc(OCCCCN3CCN(c4cccc(Cl)c4Cl)CC3)cc2N1` [ARP, 7-[4-[4-(2,3-dichlorophenyl)piperazin-1-yl]butoxy]-3,4-dihydro-1H-quinolin-2-one] here?
A: Its value is 2.182.

Q: And the chromatographic logP [2, 6]?
A: Its chromatographic logP is 4.23.

Q: What about the chromatographic logP [2, 7] of the same molecule?
A: The chromatographic logP was 4.52.

Q: And the “experimental log Pm/w, column temperature 25°C” value ([2]; HMLC)?
A: Its value is 3.12.

Q: What about the “experimental log Pm/w, column temperature 30°C” value ([2]; HMLC) of the same molecule?
A: The value was 3.66.

Q: What about the “experimental log Pm/w MELC” value [3] of the same molecule?
A: The value was 2.275.

Q: And the pka [4]?
A: The pka was 10.

Q: For `c1cnc(N2CCN(Cc3ccc4c(c3)OCO4)CC2)nc1` [PRB, 2-[4-(1,3-benzodioxol-5-ylmethyl)piperazin-1-yl] pyrimidine], which “experimental log Pm/w MLC” value [1] is on record?
A: The value was 0.7334.

Q: What about the “experimental log Pm/w HMLC” value ([2]; 0.18 M SDS, 10% acetonitrile, 0.3% TEA, pH 6, column 40°C) of the same molecule?
A: Its value is 1.648.

Q: What about the chromatographic logP [2, 6] of the same molecule?
A: The chromatographic logP was 0.86.

Q: What about the chromatographic logP [2, 7] of the same molecule?
A: The chromatographic logP was 1.09.

Q: What about the chromatographic logP ([2]; HMLC, pH 5, 40°C, read-out: log P (experimental log Pm/w) pH 5) of the same molecule?
A: The chromatographic logP was 1.1.

Q: And the “experimental log Pm/w, column temperature 25°C” value ([2]; HMLC)?
A: The value was 0.976.

Q: And the “experimental log Pm/w, column temperature 35°C” value ([2]; HMLC)?
A: Its value is 1.208.

Q: What about the “experimental log Pm/w, column temperature 40°C” value ([2]; HMLC, pH 6, 40°C) of the same molecule?
A: Its value is 1.648.

Q: What about the chromatographic logP ([2]; HMLC, pH 6, 40°C, read-out: log P (experimental log Pm/w) pH 6) of the same molecule?
A: The chromatographic logP was 1.65.

Q: And the “experimental log Pm/w MELC” value [3]?
A: Its value is 1.491.

Q: What about the pka [4] of the same molecule?
A: The pka was 6.95.

Q: And the “reported log P” value [5]?
A: The value was 1.8.
